Patent publication US20070155838A1, “New Method for Treating Urinary Disorders” (Pfizer Inc, priority 2003, published 2007)

What was measured:
[1] = tested on: muscarinic receptors of the salivary gland; settings: compared with oxybutynin; cited from earlier work
[2] = tested on: women with urinary urgency and frequency; assay: randomized, double-blind, placebo-controlled study of tolterodine tartrate (Detrol) tablets 1 mg b.i.d. in women with urinary urgency and frequency; format: in vivo, human
Experimental: The objective of a study is to evaluate the efficacy and safety of tolterodine tartrate (Detrol®) tablets 2 mg daily versus placebo, in the treatment of urinary urgency and frequency in women, in a randomized, double-blind, placebo-controlled study. The patients received 1 mg tolterodine b.i.d. or placebo, and the dosage regime was one tablet orally, every 8-12 hours, not to exceed 2 tablets daily. The treatment duration was 10 days, after a 5 day pretreatment baseline phase. […] women were included in the study, and were randomized to either the tolterodine or placebo group. All of the subjects were eligible for intent-to-treat (ITT) and safety analysis. 1077 of the randomized subjects were included in the per-protocol analysis.
Females with symptoms urinary urgency, defined as having to stop the current activity and go immediately to the bathroom at least once a day (severe) or able to finish a task but go right to the bathroom at least twice a day (moderate), were included. Frequency was defined as >7 micturitions per 24 hours. The mean age was 48 years. About 83% of the subjects were Caucasian.
Women were asked to complete a diary recording the time of awakening; number and severity of urgency of each micturition, and the number of episodes of incontinence throughout the day as well as, time when tablets taken. The women were directed to begin using the study drug after 5 days (baseline, pretreatment period): 1 tablet every 8-12 hours not to exceed 2 tablets per day.
Thus, this study was designed to evaluate the efficacy and safety of tolterodine 1 mg twice daily, every 8-12 hours, compared to placebo, in women with urinary urgency and frequency. The primary efficacy endpoints were: • 1. Subject perception of improvement in symptoms of urgency after five days of treatment, vs. baseline period, using a three-point categorical scale (Chi Square analysis): • 2. Mean of daily average severity of urgency for urgent episodes (urgency rating score of at least 1) for the 5-day baseline period vs. first five days of treatment.
A five-point categorical scale was used to assess the severity of urgency experienced at each micturition, ranging from 0 (no discomfort) to 4 (very severe).
The secondary efficacy endpoints were: • 1. Average number of urgency episodes per day per subject for the 5-day baseline period vs. first five days of treatment. • 2. Average urgency score (severity of urgency) per subject for micturition episodes accompanied by urgency (a rating score of at least 1) for the 5-day baseline period vs. first day of treatment. • 3. Average number of micturitions per day per subject for the 5-day baseline period vs. first five days of treatment.
Subject perception of improvement in symptoms or urgency after ten days of treatment, vs. baseline period, using a three-point categorical scale (Chi Square analysis).
The sudden urge to urinate accompanied by frequency of urination is a problem for many adults. The symptoms of urgency are most problematic. Therefore, the primary variables examined the subjective perception of improvement in urgency as well as the severity of urgency in subjects treated with tolterodine 1 mg b.i.d. In addition, the frequency of urination was examined as this is a standard assessment tool commonly used to assess the efficacy of drugs for the treatment of overactive bladder syndrome.
Two populations were analyzed for efficacy: the intent-to-treat (ITT) and the per-protocol populations. The former comprised all individuals randomized to treatment. The latter consisted of those individuals who complied with the protocol with regard to eligibility, visit schedule, diary completion and treatment schedule. All randomized subjects who took study medication were included in the safety analyses. Incidence of adverse events was tabulated for all randomized subjects. […]

bladder = settings: compared with oxybutynin; cited from earlier work
[3] = all analyzed time points, including day 1, compared to placebo
[4] = all analyzed time points, compared to placebo

SMILES: Cc1ccc(O)c([C@H](CCN(C(C)C)C(C)C)c2ccccc2)c1 [tolterodine, (R)-N,N-diisopropyl-3-(2-hydroxy-5-methylphenyl)-3-phenylpropanamine]
- affinity for muscarinic receptors of the salivary gland relative to oxybutynin [1]: eight times lower
- subjects with AEs related to nervous system disorders ([2]; 1 mg b.i.d. oral, 10 days, placebo 2.0%): 3.0%
- subjects with adverse events considered related to study medication ([2]; 1 mg b.i.d. oral, 10 days, placebo 4.7%): 4.8%
- subjects with AEs related to gastrointestinal disorders ([2]; 1 mg b.i.d. oral, 10 days, placebo 4.9%): 5.6%
- subjects reporting adverse events ([2]; 1 mg b.i.d. oral, 10 days, placebo 10.7%): 10.8%
- subjects with AEs related to nervous system disorders (number) ([2]; 1 mg b.i.d. oral, 10 days, placebo 13): 20 subjects
- subjects with adverse events considered related to study medication (number) ([2]; 1 mg b.i.d. oral, 10 days, placebo 31): thirty-two
- subjects with AEs related to gastrointestinal disorders (number) ([2]; 1 mg b.i.d. oral, 10 days, placebo 32): 37 subjects
- subjects reporting adverse events (number) ([2]; 1 mg b.i.d. oral, 10 days, placebo 70): Seventy-one
- subjects discontinued from the study due to AEs (number) ([2]; 1 mg b.i.d. oral, 10 days, placebo four): Three
- subjects reporting serious AEs (number) ([2]; 1 mg b.i.d. oral, 10 days, placebo one): Three
- percentage of subjects reporting symptom improvement (subject perception of improvement in symptoms of urgency) ([2]; Day 5, 1 mg b.i.d. oral, compared to placebo): statistically significantly higher percentage
- decrease in severity of urgency for all micturitions [2, 3]: statistically significantly greater decrease
- decrease in severity of urgency for urgent episodes [2, 3]: statistically significantly greater decrease
- decrease in the number of micturitions/day [2, 4]: statistically significantly greater decrease
- reduction in the number of urgent episodes/day [2, 4]: statistically significantly greater reduction
- reduction from baseline in number of micturitions/day ([2]; days 1-5, 1 mg b.i.d. oral, N=660, placebo 1.26): 1.59
- improvement from baseline in severity of urgency for urgent episodes (score, 0-4 scale) ([2]; days 1-5, 1 mg b.i.d. oral, placebo 0.19): 0.27
- potency in the bladder relative to oxybutynin (bladder): equipotent with oxybutynin
